These results are taken from patent publication US20240118265A1, “MATERIALS AND METHODS TO IMPROVE IN VITRO TOXICITY PREDICTIONS” (priority 2022, published 2024).

Read-outs that look alike come from different tables or passages of the source.

Data set [1] can be described thus: Depth of Migration (DM) test. The data set is classed as physicochemical.
The next data set has as its system cultured epithelium. As to conditions: cited from earlier work.
The subject of a further data set is eye. The note with it: cited from earlier work.
Another data set has as its system bovine cornea. As to conditions: cited from earlier work.
For a further data set, the system named is RhCE tissues. The note with it: without DM test; cited from earlier work.
In another data set the test system is isolated chicken eye. As to conditions: without DM test; cited from earlier work.
The mark [2] stands for this setting: 1:100 dilution in DM dye solution, 30 μL, 15° platform, after 30-120 seconds, table value.

The compound `C=CC(=O)OCCO` [Hydroxyethyl acrylate] yielded a DM Distance Traveled in data set [1] of 4.5 cm.
On to `CCO` [Ethanol], for which the “Short Time Exposure (STE) prediction versus in vivo” value with cultured epithelium (without DM test) was “false negatives”. In data set [1] (setting [2]), this compound gave a DM Distance Traveled of 4.5 cm. The “in vivo GHS” value with eye (GHS category) was “Cat. 2”.
Turning to `CC(C)(O)CCC(C)(C)O` [2,5-Dimethyl-2,5-hexanediol], the “Short Time Exposure (STE) prediction versus in vivo” value in the data set with cultured epithelium (without DM test) was “false negatives”. Further, the DM Distance Traveled in data set [1] (setting [2]) turned out to be 4.5 cm. Further, the “in vivo GHS” value with eye (GHS category) was “Cat. 1”.
For the compound `CCOC(=O)CC(=O)c1cc(F)c(Cl)nc1Cl` [Ethyl 2,6-dichloro-5-fluoro-beta-oxo-3-pyridine propionate], in data set [1] (setting [2]), the DM Distance Traveled stood at 4.5 cm. The “BCOP prediction versus in vivo” value in the data set on bovine cornea is recorded as “false negatives”. Moreover, the “in vivo GHS” value with eye (rabbit, in vivo) is “Cat. 2”.
For `CCCOCC(C)OCC(C)O` (stereo not drawn) [1-(1-methyl-2-propoxyethoxy)propan-2-ol], the “Short Time Exposure (STE) prediction versus in vivo” value in the data set with cultured epithelium is given as “false negatives”. This compound also showed a DM Distance Traveled in data set [1] of 4.5 cm. The “in vivo GHS” value in the data set on eye (rabbit, in vivo) is “Cat. 2”.
In data set [1] (setting [2]), `c1ccc2c(c1)CCc1ccccc1N2` [Iminodibenzyl] displayed a DM Distance Traveled of 4.5 cm. In addition, the “in vivo GHS” value in the data set with eye (rabbit, in vivo) is listed as “Cat. 1”. Also, the “EpiOcular prediction versus in vivo” value in the data set on RhCE tissues was “false negatives”.
In data set [1] (setting [2]), `CC(=O)O[C@H]1NC(=O)[C@@H]1[C@@H](C)O[Si](C)(C)C(C)(C)C` [(2R,3R)-3-((R)-1-(tert-Butyldimethylsiloxy)ethyl)-4-oxoazetidin-2-yl acetate] came in with a DM Distance Traveled of 4.5 cm. Further, in the data set with bovine cornea (without DM test), the “BCOP prediction versus in vivo” value was “false negatives”. Besides, in the data set on eye (GHS category), the “in vivo GHS” value is reported as “Cat. 2”.
Consider `CCCCCCCCCCCCCCO` [Myristyl alcohol], for which the “Short Time Exposure (STE) prediction versus in vivo” value with cultured epithelium is on record as “false negatives”. This compound also returned a DM Distance Traveled in data set [1] (setting [2]) of 4.5 cm. Also, in the data set on eye (rabbit, in vivo), the “in vivo GHS” value is listed as “Cat. 2”.
As to `C/C=C/C=C/C(=O)[O-].[K+]` [Potassium sorbate], in the data set with cultured epithelium, the “Short Time Exposure (STE) prediction versus in vivo” value was “false negatives”. Besides, the DM Distance Traveled in data set [1] was found to be 4.5 cm. For the same compound, the “in vivo GHS” value in the data set with eye (rabbit, in vivo) is recorded as “Cat. 2”.
On to `Cc1c(COC(=O)[C@@H]2[C@H](/C=C(\Cl)C(F)(F)F)C2(C)C)cccc1-c1ccccc1` (racemic) [Bifenthrin], for which the DM Distance Traveled in data set [1] (setting [2]) is 4.5 cm. Also, the “in vivo GHS” value in the data set on eye (GHS category) was “Cat. 2”. The “EpiOcular prediction versus in vivo” value with RhCE tissues is given as “false negatives”.
Turning to `O=C([O-])c1ccccc1O.[Na+]` [Sodium salicylate], in the data set on cultured epithelium, the “Short Time Exposure (STE) prediction versus in vivo” value is “false negatives”. In addition, in data set [1], the DM Distance Traveled was 4.5 cm. Besides, the “in vivo GHS” value with eye (rabbit, in vivo) is on record as “Cat. 1”.
Turning to `O=C(Cl)c1c(Cl)cccc1Cl` [2,6-Dichlorobenzoyl chloride], the “Short Time Exposure (STE) prediction versus in vivo” value in the data set on cultured epithelium (without DM test) is recorded as “false negatives”. Moreover, the DM Distance Traveled in data set [1] (setting [2]) amounted to 4.5 cm. In the data set on eye (GHS category), the “in vivo GHS” value was “Cat. 2”.
For the compound `COC(C)=O` [Methyl acetate], the “Short Time Exposure (STE) prediction versus in vivo” value in the data set on cultured epithelium (without DM test) was “false negatives”. The DM Distance Traveled in data set [1] (setting [2]) was found to be 4.5 cm. Further, the “in vivo GHS” value in the data set on eye (GHS category) is on record as “Cat. 2”.
In data set [1] (setting [2]), `CCCCOc1ccc(OCCCC)cc1` [1,4-dibutoxy benzene] came in with a DM Distance Traveled of 4.5 cm. Further, the “in vivo GHS” value in the data set on eye (GHS category) is listed as “Cat. 2”. In addition, the “EpiOcular prediction versus in vivo” value with RhCE tissues is reported as “false negatives”.
Turning to Triton X-100 (10%), the “known ocular irritancy class of the chemical” value in the data set on eye (reference classification) was “ocular corrosive”.
`CC(C)O` [Isopropanol]: the “Short Time Exposure (STE) prediction versus in vivo” value with cultured epithelium (without DM test) was “false negatives”. The same compound returned a DM Distance Traveled in data set [1] (setting [2]) of 4.5 cm. In addition, in the data set on eye (GHS category), the “in vivo GHS” value is listed as “Cat. 2”.
As to `CC(C)(C)CC(C)(C)c1ccc(O)cc1` [4-(1,1,3,3-Tetramethylbutyl)phenol], the DM Distance Traveled in data set [1] stood at 4.5 cm. The “BCOP prediction versus in vivo” value in the data set with bovine cornea (without DM test) is given as “false negatives”. Further, the “in vivo GHS” value in the data set on eye (GHS category) is reported as “Cat. 1”.
On to `COC(=O)CC#N` [Methyl cyanoacetate], for which the “Short Time Exposure (STE) prediction versus in vivo” value with cultured epithelium (without DM test) is listed as “false negatives”. Besides, in the data set with isolated chicken eye, the “ICE prediction versus in vivo” value is given as “false negatives”. The DM Distance Traveled in data set [1] (setting [2]) stood at 4.5 cm. In the data set with eye (GHS category), the “in vivo GHS” value is “Cat. 2”. In addition, the “EpiOcular prediction versus in vivo” value in the data set on RhCE tissues is recorded as “false negatives”.
`C=C1C2CCC(C2)C1(C)C` (stereo not drawn) [Camphene] had a DM Distance Traveled in data set [1] (setting [2]) of 4.5 cm.
Take `CCN(CC)CCCC(C)Nc1c2ccc(Cl)cc2nc2ccc(OC)cc12` (stereo not drawn) [Quinacrine]: the DM Distance Traveled in data set [1] (setting [2]) is 4.5 cm. Also, the “BCOP prediction versus in vivo” value in the data set on bovine cornea (without DM test) is given as “false negatives”. Further, the “in vivo GHS” value with eye (rabbit, in vivo) is “Cat. 1”.
For the compound `O=Cc1ccc(C(=O)O)cc1` [4-carboxybenzaldehyde], the “ICE prediction versus in vivo” value in the data set on isolated chicken eye was “false negatives”. This compound also displayed a DM Distance Traveled in data set [1] (setting [2]) of 4.5 cm. For the same compound, the “in vivo GHS” value in the data set with eye (GHS category) is given as “Cat. 2”.
In data set [1] (setting [2]), `N[C@@H](CC(=O)O)C(=O)O` [L-Aspartic acid] gave a DM Distance Traveled of 4.5 cm.
